From patent US20240197888A1, “SOS1 PROTEIN DEGRADERS, PHARMACEUTICAL COMPOSITIONS THEREOF, AND THEIR THERAPEUTIC APPLICATIONS” (BioTheryX, Inc., priority 2021, published 2024) come the findings set out here.

What all share (format): cell-based
Experiment [1] has as its system Lovo (G13D) cells. As to the kind of experiment: Cell viability assay (CELLTITER-GLO), Lovo cells. The following applies: Homo sapiens, 72 h, Inhibition of cancerous cells, 3 days incubation, luminescence. The protocol: (§1) AsPC-1, H358, and SW48 cells were cultured in RPMI 1640 media supplemented with 10% fetal bovine serum, streptomycin, and penicillin. Lovo and SW480 cells were cultured in DMEM media supplemented with 10% fetal bovine serum, streptomycin, and penicillin. The cell lines were plated in their respective medium supplemented with 2.5% fetal bovine serum, streptomycin, and penicillin. All cell lines were plated in white walled 96-well plates at 2,000 cells/well or 384-well plates at 500 cells/well, except Lovo, which were plated at 4,000 or 1,000 cells/well, respectively. The cells were incubated in DMSO (control) or a compound for 3 days at 37° C. under 5% CO2. A CELLTITER-GLO® reagent ([…] was then added to each well. After a 10 min incubation with shaking, luminescence was measured using an ENVISION® multimode plate reader. IC50 values are summarized in Table 1.
For orientation: In ATP-based viability assays light output follows the ATP content of the culture.

Experiment [2] concerns SW48 (wt) cells. As to the kind of experiment: Cell viability assay (CELLTITER-GLO), SW48 cells. The following applies: Homo sapiens, 72 h, Inhibition of cancerous cells, 3 days incubation, luminescence. The protocol:
as §1

The test system of experiment [3] is SW480 (G12V) cells. As to the kind of experiment: Cell viability assay (CELLTITER-GLO), SW480 cells. The settings on record: Homo sapiens, 72 h, Inhibition of cancerous cells, 3 days incubation, luminescence. The protocol:
as §1

Experiment [4] has as its system H358 (G12C) cells. As to the kind of experiment: Cell viability assay (CELLTITER-GLO), H358 cells. The settings on record: Homo sapiens, NCI-H358, 72 h, Inhibition of cancerous cells, 3 days incubation, luminescence. As for the experimental part:
as §1

What is called IC50 is the concentration at which inhibition is half-maximal. A higher IC50 goes with weaker potency. With `CNCc1ccccc1-c1csc([C@@H](C)Nc2nc(C)nc3cc(OCCCCCCCN4CCCCC4)c(OC)cc23)c1` [Compound A2, (R)-6-methoxy-2-methyl-N-(1-(4-(2-((methylamino)methyl)phenyl)thiophen-2-yl)ethyl)-7-((7-(piperidin-1-yl)heptyl)oxy)quinazolin-4-amine], the IC50 in experiment [1] came to 0.18 µM; in experiment [2], 0.33 µM; in experiment [3], 0.51 µM; in experiment [4], 0.47 µM.
With `CNCc1ccccc1-c1csc([C@H](C)Nc2nc(C)nc3cc(OCCCCCCCN4CCCCC4)c(OC)cc23)c1` [Compound A3, (S)-6-methoxy-2-methyl-N-(1-(4-(2-((methylamino)methyl)phenyl)thiophen-2-yl)ethyl)-7-((7-(piperidin-1-yl)heptyl)oxy)quinazolin-4-amine], the IC50 is 0.34 µM in experiment [1], 0.5 µM in experiment [2], 0.61 µM in experiment [3] and 0.61 µM in experiment [4].
For `CNCc1ccccc1-c1csc([C@@H](C)Nc2nc(C)nc3cc(OCCOCCNC(=O)CC45CC6CC(CC(C6)C4)C5)c(OC)cc23)c1` [Compound A5, 2-((3r,5r,7r)-adamantan-1-yl)-N-(2-(2-((6-methoxy-2-methyl-4-(((R)-1-(4-(2-((methylamino)methyl)phenyl)thiophen-2-yl)ethyl)amino)quinazolin-7-yl)oxy)ethoxy)ethyl)-acetamide], the IC50 came out at 0.45 µM in experiment [1], 0.9 µM in experiment [2], 0.55 µM in experiment [3] and 0.91 µM in experiment [4].
On to `CNCc1ccccc1-c1csc([C@H](C)Nc2nc(C)nc3cc(OCCOCCNC(=O)CC45CC6CC(CC(C6)C4)C5)c(OC)cc23)c1` [Compound A6, 2-((3r,5r,7r)-adamantan-1-yl)-N-(2-(2-((6-methoxy-2-methyl-4-(((S)-1-(4-(2-((methylamino)methyl)phenyl)thiophen-2-yl)ethyl)amino)quinazolin-7-yl)oxy)ethoxy)-ethyl)acetamide], for which the 50% inhibitory concentration (IC50) in experiment [1] is 0.48 µM; in experiment [2], 1 µM; in experiment [3], 0.76 µM; in experiment [4], 0.97 µM.
Consider `COc1cc2c(N[C@H](C)c3cccc(Br)c3)nc(C)nc2cc1OCCCCCCCN1CCC(C(F)(F)F)CC1` [Compound A24, (R)—N-(1-(3-Bromophenyl)ethyl)-6-methoxy-2-methyl-7-((7-(4-(trifluoromethyl)-piperidin-1-yl)heptyl)oxy)quinazolin-4-amine], for which the IC50 in experiment [1] is 0.46 µM; in experiment [2], 0.59 µM; in experiment [3] it was 0.71 µM; in experiment [4], 1.2 µM.
As for `COc1cc2c(N[C@H](C)c3cccc(Br)c3)nc(C)nc2cc1OCCCCCCCN1CCCCC1=O` [Compound A25, (R)-1-(7-((4-((1-(3-Bromophenyl)ethyl)amino)-6-methoxy-2-methylquinazolin-7-yl)oxy)heptyl)piperidin-2-one], the IC50 amounted to 0.5 µM in experiment [1], 1.8 µM in experiment [2], 0.78 µM in experiment [3] and 1.4 µM in experiment [4].
As to `COc1cc2c(N[C@H](C)c3cccc(Br)c3)nc(C)nc2cc1OCCCCCCCN1CCN(C(C)=O)CC1` [Compound A26, (R)-1-(4-(7-((4-((1-(3-Bromophenyl)ethyl)amino)-6-methoxy-2-methyl-quinazolin-7-yl)oxy)heptyl)piperazin-1-yl)ethan-1-one], the IC50 was 0.54 µM in experiment [1], 0.6 µM in experiment [2], 0.58 µM in experiment [3] and 1.2 µM in experiment [4].
Regarding `COc1cc2c(N[C@H](C)c3cccc(Br)c3)nc(C)nc2cc1OCCCCCCC(=O)N1CCCCC1` [Compound A36, (R)-7-((4-((1-(3-Bromophenyl)ethyl)amino)-6-methoxy-2-methylquinazolin-7-yl)oxy)-1-(piperidin-1-yl)heptan-1-one], the IC50 in experiment [1] was determined as 0.78 µM; in experiment [2], 1.7 µM; in experiment [3] it was 0.56 µM; in experiment [4], 1.3 µM.
